Source: patent US11827624B2, “Covalent immune recruiter compounds for immune cell recognition and associated uses” (McMaster University, priority 2020, dated 2023)

Legend:
[1] = Aqueous CIR stability test (LC-MS hydrolytic stability in PBS); format: physicochemical; settings: PBS with 1% DMSO; ≈10 μM in 1% DMSO/PBS, room temperature; read-out: t1/2 (hydrolytic stability, intact CIR) (converted)
Description: Stability studies were conducted on a Sciex 4000 QTRAP, ESI-LCMS Triple Quadrupole Mass Spectrometer connected to an Agilent 1200 HPLC. All molecules were diluted 100× in PBS from a stable frozen DMSO stock solution reaching a final concentration of ≈10 μM in 1% DMSO/PBS and incubated for different amounts of time at room temperature, prior to LC-MS injection using a gradient of 95:5 to 5:95 (0.1% Formic Acid (aq)) water: ACN over 15 minutes. The integrations of the Absorbance values at 355-365 nm, were determined corresponding to the DNP moiety. The absorbance values corresponding to intact CIR were divided by the sum of intact and hydrolyzed CIR (the imidazole-DNP fragment) to determine fraction CIR intact changing with time. The fraction of intact CIR versus time was plotted on GraphPad Prism 8 using a “Dissociation—One Phase Decay” to extract the half life.
LC-MS analysis of the hydrolytic stability of CIRs 1, 3, and 4 in PBS was performed. The curve fit was done using a monoexponential decay which represents intact CIR plotted as a function of peak integration (corresponding to DNP absorbance) overtime.

[2] = tested on: human serum anti-DNP IgG (sAb); experiment: BLI Fc capture probe assay of CIR 3 covalent recruitment of serum anti-DNP IgG; format: binding; settings: 60 nM anti-DNP IgG enriched sample
Description: The ability of CIR 3 to recruit the tumour antigen PSMA to anti-DNP antibodies was measured using BLI. Anti-DNP IgG was isolated from human serum IgG (Cedarlane Labs) using affinity chromatography. The enriched anti-DNP antibody sample had 63.19 nM of anti-DNP antibody in 1.92 μM of total IgG. The enriched antibody sample was reacted with 2.5 μM of CIR 3 in PBS overnight at room temperature. A sample of 32.75 μM IgG that was depleted of anti-DNP antibody was also reacted with 2.5 μM of CIR 3 in PBS overnight at room temperature as a negative control. The BLI experiment was conducted using an Octet Red96 (ForteBio) with the temperature set at 25° C., the RPM set at 1000, and the acquisition rate set at 5 Hz. The isolated anti-DNP and CIR 3 reaction samples were suspended in 1×Kinetics Buffer (ForteBio) by doping in a 1:10 dilution of 10×Kinetics Buffer stock. A volume of 200 μL of each solution was loaded into a black flat-bottom 96-well plate (Grenier). Fc capture (ProG) biosensors from ForteBio were placed in 1×Kinetics Buffer for 20 minutes prior to the experiment for wetting. First, the probes were placed in 1×Kinetics Buffer for 4 minutes to establish a baseline. […] Association of PSMA to the probe was measured by submerging the probe in 500 nM PSMA for 10 minutes. Dissociation of PSMA from the probe was measured by submerging the probe in 1×Kinetics Buffer for 10 minutes. […]

SMILES: O=C(O)CC[C@H](NC(=O)N[C@@H](CCCCNC(=O)NCCOCCOCCOCCOCCOCCOCCOCCOC(=O)n1cnc(CCNC(=O)CNc2ccc([N+](=O)[O-])cc2[N+](=O)[O-])c1)C(=O)O)C(=O)O [CIR 3]
- half-life [1]: ~12 h
- covalent labeling of enriched serum anti-DNP IgG [2]: substantial covalent antibody labeling and resultant PSMA binding to Fc capture probes
